Measurements taken from PubChem BioAssay AID256 (DTP/NCI, 2004).
Toxic doses and inconclusive results are not listed.

Tested on: CD2F1 mice, L1210 leukemia ip, survival T/C
Assay: NCI In Vivo Anticancer Drug Screen. Data for tumor model L1210 Leukemia (intraperitoneal) in CD2F1 (CDF1) mice
Conditions: higher = longer survival
How it was run: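 Mice carrying a transplanted tumor received test compound or vehicle alone. The value is the measurement in the treated group divided by that in the vehicle-treated control group.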

[1] = endpoint: mean survival time, dose: 100.0 mg/kg/injection, schedule: Q04DX003 (ip), vehicle: saline with Tween-80
[2] = endpoint: mean survival time, dose: 200.0 mg/kg/injection, schedule: Q04DX003 (ip), vehicle: saline with Tween-80
[3] = endpoint: mean survival time, dose: 400.0 mg/kg/injection, schedule: Q04DX003 (ip), vehicle: saline with Tween-80
[4] = endpoint: mean survival time, dose: 25.0 mg/kg/injection, schedule: Q01DX005 (ip), vehicle: water
[5] = endpoint: mean survival time, dose: 50.0 mg/kg/injection, schedule: Q01DX005 (ip), vehicle: water
[6] = endpoint: mean survival time, dose: 100.0 mg/kg/injection, schedule: Q01DX009 (ip), vehicle: saline with Tween-80
[7] = endpoint: mean survival time, dose: 200.0 mg/kg/injection, schedule: Q01DX009 (ip), vehicle: saline with Tween-80
[8] = endpoint: mean survival time, dose: 400.0 mg/kg/injection, schedule: Q01DX009 (ip), vehicle: saline with Tween-80
[9] = endpoint: mean survival time, dose: 50.0 mg/kg/injection, schedule: Q04DX002 (ip), vehicle: saline with Tween-80
[10] = endpoint: mean survival time, dose: 100.0 mg/kg/injection, schedule: Q04DX003 (ip), vehicle: saline
[11] = endpoint: mean survival time, dose: 200.0 mg/kg/injection, schedule: Q04DX003 (ip), vehicle: saline
[12] = endpoint: mean survival time, dose: 400.0 mg/kg/injection, schedule: Q04DX003 (ip), vehicle: saline
[13] = endpoint: mean survival time, dose: 100.0 mg/kg/injection, schedule: Q01DX009 (ip), vehicle: other
[14] = endpoint: mean survival time, dose: 100.0 mg/kg/injection, schedule: Q04DX002 (ip), vehicle: saline with Tween-80
[15] = endpoint: mean survival time, dose: 100.0 mg/kg/injection, schedule: Q01DX001 (ip), vehicle: saline with Tween-80
[16] = endpoint: mean survival time, dose: 200.0 mg/kg/injection, schedule: Q01DX001 (ip), vehicle: saline with Tween-80
[17] = endpoint: mean survival time, dose: 400.0 mg/kg/injection, schedule: Q01DX001 (ip), vehicle: saline with Tween-80

With `COc1ccc(/C=C/C(=O)c2ccc(OC)c(OC)c2)cc1OC` the T/C [1] was 96 % of control, the T/C [2] was 101 % of control and the T/C [3] was 98 % of control.
For `CCN(CC)Cc1cc(Nc2ncnc3sc(C)c(C)c23)ccc1O`, the T/C [1] was 92 % of control, the T/C [2] was 88 % of control and the T/C [3] was 91 % of control.
With `COC(OC)c1[nH]c(=S)[nH]c(=O)c1Cc1cc(C)ccc1C` the T/C (endpoint: mean survival time, dose: 100.0 mg/kg/injection, schedule: Q04DX003 (ip), vehicle: saline sonified) was 101 % of control, the T/C (endpoint: mean survival time, dose: 200.0 mg/kg/injection, schedule: Q04DX003 (ip), vehicle: saline sonified) was 95 % of control and the T/C (endpoint: mean survival time, dose: 400.0 mg/kg/injection, schedule: Q04DX003 (ip), vehicle: saline sonified) was 101 % of control.
With `Cc1cnc([Se])[nH]c1=O` the T/C [4] was 87 % of control and the T/C [5] was 90 % of control.
For `CC(C)C(=O)OCCOc1ccccc1`, the T/C [6] was 100 % of control, the T/C [7] was 100 % of control and the T/C [8] was 98 % of control.
In the case of `C=Cn1cnc2c(N)ncnc21` (tested in a mixture with another compound), the T/C (endpoint: mean survival time, dose: 12.5 mg/kg/injection, schedule: Q01DX005 (ip), vehicle: water) is reported as 101 % of control, the T/C [4] is reported as 104 % of control and the T/C [5] is reported as 101 % of control. The T/C (endpoint: mean survival time, dose: 100.0 mg/kg/injection, schedule: Q01DX005 (ip), vehicle: water) was 101 % of control and the T/C (endpoint: mean survival time, dose: 200.0 mg/kg/injection, schedule: Q01DX005 (ip), vehicle: water) was 104 % of control.
In the case of `Cc1cc2c(cc1C)[n+]([O-])c1c(=O)[nH]c(=O)[nH]c1[n+]2[O-]`, the T/C (endpoint: mean survival time, dose: 25.0 mg/kg/injection, schedule: Q04DX002 (ip), vehicle: saline with Tween-80) is reported as 98 % of control and the T/C [9] is reported as 102 % of control.
For `N#CNC=Nc1ccccc1`, the T/C [10] was 95 % of control, the T/C [11] was 95 % of control and the T/C [12] was 100 % of control.
`COc1ccc(OC)c(C(=O)C=C(C(F)(F)F)C(F)(F)F)c1` was tested, and the T/C [13] was 113 % of control.
`CCCC[N+](CCCC)(CCCC)CCCC.[Cl-].[Cl-].[Cl-].[Cl-].[Cl-].[Cl-].[Cl-].[Cl-].[Re].[Re]` was tested, and the T/C [14] was 112 % of control, the T/C (endpoint: mean survival time, dose: 200.0 mg/kg/injection, schedule: Q04DX002 (ip), vehicle: saline with Tween-80) was 112 % of control and the T/C (endpoint: mean survival time, dose: 400.0 mg/kg/injection, schedule: Q04DX002 (ip), vehicle: saline with Tween-80) was 116 % of control.
For `CC(C)(C)c1ccc(O)c(Sc2cc(C(C)(C)C)ccc2O)c1`, the T/C (endpoint: mean survival time, dose: 50.0 mg/kg/injection, schedule: Q01DX009 (ip), vehicle: other) was 96 % of control, the T/C [13] was 98 % of control and the T/C [6] was 98 % of control. The T/C (endpoint: mean survival time, dose: 200.0 mg/kg/injection, schedule: Q01DX009 (ip), vehicle: other) was 101 % of control, the T/C [7] was 103 % of control and the T/C [8] was 94 % of control.
With `NC(=S)c1csc(CCNC(=O)c2ccccc2)n1` the T/C [15] was 100 % of control, the T/C [6] was 98 % of control and the T/C [10] was 96 % of control. For the same compound, the T/C [16] was 97 % of control, the T/C [7] was 98 % of control and the T/C [11] was 89 % of control. The T/C [17] was 97 % of control, the T/C [8] was 100 % of control and the T/C [12] was 93 % of control.
In the case of `COc1ccc2[nH]c(=O)oc(=O)c2c1`, the T/C (endpoint: mean survival time, dose: 12.5 mg/kg/injection, schedule: Q01DX009 (ip), vehicle: Klucel (hydroxypropylcellulose) (HPC)) is reported as 96 % of control, the T/C (endpoint: mean survival time, dose: 25.0 mg/kg/injection, schedule: Q01DX009 (ip), vehicle: Klucel (hydroxypropylcellulose) (HPC)) is reported as 102 % of control and the T/C (endpoint: mean survival time, dose: 50.0 mg/kg/injection, schedule: Q01DX009 (ip), vehicle: Klucel (hydroxypropylcellulose) (HPC)) is reported as 108 % of control. The T/C [15] was 96 % of control, the T/C (endpoint: mean survival time, dose: 100.0 mg/kg/injection, schedule: Q01DX009 (ip), vehicle: Klucel (hydroxypropylcellulose) (HPC)) was 106 % of control and the T/C [6] was 104 % of control. The T/C [16] was 107 % of control and the T/C [17] was 105 % of control.
In the case of `CCOC(=O)CC1c2nc3ccccc3cc2CN1C(=O)CCOC(C)=O` (stereo unspecified), the T/C [6] is reported as 95 % of control, the T/C [1] is reported as 104 % of control and the T/C [7] is reported as 92 % of control. The T/C [2] was 100 % of control, the T/C [8] was 97 % of control and the T/C [3] was 97 % of control.
With `O=C(Nc1ccc(N(CCCl)CCCl)cc1)c1ccccc1` the T/C (endpoint: mean survival time, dose: 100.0 mg/kg/injection, schedule: Q04DX003 (ip), vehicle: Klucel (hydroxypropylcellulose) (HPC)) was 96 % of control, the T/C (endpoint: mean survival time, dose: 200.0 mg/kg/injection, schedule: Q04DX003 (ip), vehicle: Klucel (hydroxypropylcellulose) (HPC)) was 101 % of control and the T/C (endpoint: mean survival time, dose: 400.0 mg/kg/injection, schedule: Q04DX003 (ip), vehicle: Klucel (hydroxypropylcellulose) (HPC)) was 109 % of control.
For `CCN(CC)C(=O)/C=C/c1ccccc1`, the T/C [1] was 103 % of control, the T/C [2] was 101 % of control and the T/C [3] was 103 % of control.
`COC(C)C(O)(c1ccccc1)c1ccccc1` (stereo unspecified) was tested, and the T/C (endpoint: mean survival time, dose: 50.0 mg/kg/injection, schedule: Q01DX009 (ip), vehicle: saline with Tween-80) was 101 % of control, the T/C [6] was 101 % of control and the T/C [7] was 96 % of control.
In the case of `CCOC(=O)C(C(C)=O)C(C)C` (stereo unspecified), the T/C (endpoint: mean survival time, dose: 25.0 mg/kg/injection, schedule: Q01DX009 (ip), vehicle: water) is reported as 95 % of control, the T/C (endpoint: mean survival time, dose: 50.0 mg/kg/injection, schedule: Q01DX009 (ip), vehicle: water) is reported as 102 % of control and the T/C (endpoint: mean survival time, dose: 100.0 mg/kg/injection, schedule: Q01DX009 (ip), vehicle: water) is reported as 102 % of control. The T/C (endpoint: mean survival time, dose: 200.0 mg/kg/injection, schedule: Q01DX009 (ip), vehicle: water) was 97 % of control and the T/C (endpoint: mean survival time, dose: 400.0 mg/kg/injection, schedule: Q01DX009 (ip), vehicle: water) was 97 % of control.
`CCC(O)(c1ccccc1)C(O)(CC)c1ccccc1` (stereo unspecified) was tested, and the T/C [9] was 96 % of control and the T/C [14] was 86 % of control.
In the case of `N#CCC(=O)O`, the T/C (endpoint: mean survival time, dose: 37.5 mg/kg/injection, schedule: Q04DX003 (ip), vehicle: saline) is reported as 100 % of control and the T/C (endpoint: mean survival time, dose: 75.0 mg/kg/injection, schedule: Q04DX003 (ip), vehicle: saline) is reported as 100 % of control.
For `S=P(N1CCOCC1)(N1CC1)N1CC1`, the T/C (endpoint: mean survival time, dose: 10.0 mg/kg/injection, schedule: Q01DX007 (ip), vehicle: saline) was 116 % of control, the T/C (endpoint: mean survival time, dose: 10.0 mg/kg/injection, schedule: Q03DX003 (ip), vehicle: saline) was 118 % of control and the T/C (endpoint: mean survival time, dose: 10.0 mg/kg/injection, schedule: Q04DX003 (ip), vehicle: saline) was 114 % of control. For the same compound, the T/C (endpoint: mean survival time, dose: 12.5 mg/kg/injection, schedule: Q01DX Z (ip), vehicle: carboxymethylcellulose (CMC)) was 118 % of control, the T/C (endpoint: mean survival time, dose: 20.0 mg/kg/injection, schedule: Q01DX007 (ip), vehicle: saline) was 172 % of control and the T/C (endpoint: mean survival time, dose: 20.0 mg/kg/injection, schedule: Q01DX009 (ip), vehicle: saline) was 171 % of control. The T/C (endpoint: mean survival time, dose: 25.0 mg/kg/injection, schedule: Q01DX Z (ip), vehicle: carboxymethylcellulose (CMC)) was 100 % of control, the T/C (endpoint: mean survival time, dose: 40.0 mg/kg/injection, schedule: Q01DX007 (ip), vehicle: saline) was 86 % of control and the T/C (endpoint: mean survival time, dose: 40.0 mg/kg/injection, schedule: Q01DX009 (ip), vehicle: saline) was 100 % of control. For the same compound, the T/C (endpoint: mean survival time, dose: 40.0 mg/kg/injection, schedule: Q03DX003 (ip), vehicle: saline) was 223 % of control and the T/C (endpoint: mean survival time, dose: 40.0 mg/kg/injection, schedule: Q04DX003 (ip), vehicle: saline) was 218 % of control.
With `C=CCCCCCCCCC(=O)NCC1CCCCO1` (stereo unspecified) the T/C [1] was 94 % of control, the T/C [2] was 98 % of control and the T/C [3] was 93 % of control.
For `Nn1c2ccccc2c2ccccc21`, the T/C (endpoint: mean survival time, dose: 75.0 mg/kg/injection, schedule: Q01DX001 (ip), vehicle: saline) was 98 % of control and the T/C (endpoint: mean survival time, dose: 150.0 mg/kg/injection, schedule: Q01DX001 (ip), vehicle: saline) was 106 % of control.
In the case of `CCOc1ccc2ccccc2c1C(=O)N(CCCl)CCCl`, the T/C (endpoint: mean survival time, dose: 25.0 mg/kg/injection, schedule: Q01DX009 (ip), vehicle: saline with Tween-80) is reported as 94 % of control and the T/C [6] is reported as 104 % of control.
For `COc1ccc(/C=C2/SC(=S)NC2=O)c(OC)c1OC`, the T/C (endpoint: mean survival time, dose: 75.0 mg/kg/injection, schedule: Q01DX001 (ip), vehicle: other) was 103 % of control, the T/C (endpoint: mean survival time, dose: 150.0 mg/kg/injection, schedule: Q01DX001 (ip), vehicle: other) was 92 % of control and the T/C (endpoint: mean survival time, dose: 300.0 mg/kg/injection, schedule: Q01DX001 (ip), vehicle: other) was 103 % of control.
In the case of `O=C1C=CC2OC(c3ccccc3)C(O)C2O1` (stereo unspecified), the T/C (endpoint: median survival time, dose: 3.12 mg/kg/injection, schedule: Q01DX005 (ip), vehicle: DMSO) is reported as 111 % of control, the T/C (endpoint: median survival time, dose: 6.25 mg/kg/injection, schedule: Q01DX005 (ip), vehicle: DMSO) is reported as 101 % of control and the T/C (endpoint: median survival time, dose: 12.5 mg/kg/injection, schedule: Q01DX005 (ip), vehicle: DMSO) is reported as 112 % of control. For the same compound, the T/C (endpoint: median survival time, dose: 25.0 mg/kg/injection, schedule: Q01DX005 (ip), vehicle: DMSO) was 115 % of control and the T/C (endpoint: median survival time, dose: 50.0 mg/kg/injection, schedule: Q01DX005 (ip), vehicle: DMSO) was 87 % of control.
